# Article PMC5788404 (Journal of Medicinal Chemistry, 2017)
# Entries after “also recorded” stand apart in the source; their conditions may differ.
# Tests used:
# [1] = tested on: HeLa cells; assay: Colony formation assay; type: cell-based, Human; conditions: 150 μM
# [2] = tested on: HeLa cells; assay: Proliferation assay; type: cell-based, Human; conditions: 150 μM, relative to DMSO vehicle
# [3] = molecular target: T1, VBC complex (VHL:ElonginB:ElonginC) (Homo sapiens, UniProt P40337); type: binding; conditions: for LE: LE = −RT ln Kd/NHA; for LE / LLE: on the basis of ITC results; for LLE: LLE = pKd–Log D
# T1 construct: made in house
# T1 sequence (Q15369 17-112): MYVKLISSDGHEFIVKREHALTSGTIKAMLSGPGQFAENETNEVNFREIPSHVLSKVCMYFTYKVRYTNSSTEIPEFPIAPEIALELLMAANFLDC
# T1 sequence (P40337 54-213): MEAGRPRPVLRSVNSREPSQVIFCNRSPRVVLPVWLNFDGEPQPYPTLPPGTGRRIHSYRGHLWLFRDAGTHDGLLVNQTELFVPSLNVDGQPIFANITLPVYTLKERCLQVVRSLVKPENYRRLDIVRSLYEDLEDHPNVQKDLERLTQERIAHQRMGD
# T1 sequence (Q15370 1-104, further chain): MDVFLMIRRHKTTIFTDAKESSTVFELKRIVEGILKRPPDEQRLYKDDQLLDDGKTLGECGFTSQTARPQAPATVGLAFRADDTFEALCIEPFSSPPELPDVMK
# [4] = tested on: HeLa cells; assay: Intracellular drug concentration (accumulation in HeLa cells); type: in vitro ADME, Human; conditions: HeLa cells, 50 μM, 2 h
# [5] = as above; type: in vitro ADME, Human; conditions: human; HeLa cell lysate, equilibrium dialysis; read-out: Fraction unbound (fu)
# [6] = molecular target: T2, VBC protein (VHL:ElonginB:ElonginC protein complex) (Homo sapiens, UniProt P40337); type: binding; conditions: based on FP results, GE = ΔpKd/ΔHA (heavy atoms)
# T2 construct: made in house
# T2 sequence (P40337 54-213): as the sequence (P40337 54-213) above
# T2 sequence (Q15369 17-112, further chain): as the sequence (Q15369 17-112) above
# T2 sequence (Q15370 1-104, further chain): as the sequence (Q15370 1-104, further chain) above
# [7] = tested on: HIF-1α; assay: cells; conditions: Homo sapiens, HeLa, 2 h, read-out: HIF-1α Stabilization (Protein % levels), HeLa cells, 50 μM inhibitor, 2 h, Western blot, normalized to level observed with 1
# [8] = Intrinsic clearance (Cli) in liver microsomes; type: in vitro ADME; conditions: female CD1 mouse liver microsomes, 0.5 μM compound
# [9] = molecular target: T3, immobilized VBC protein (Homo sapiens, UniProt P40337); assay: biochemical; type: binding; conditions: for Dissociative t1/2: t1/2 = ln2/koff; for kon: SPR
# T3 construct: made in house
# T3 sequence (Q15369 17-112): as the sequence (Q15369 17-112) above
# T3 sequence (Q15370 1-104, further chain): as the sequence (Q15370 1-104, further chain) above
# T3 sequence (P40337 54-213): as the sequence (P40337 54-213) above
# [10] = Parallel Artificial Membrane Permeability Assay (PAMPA); type: in vitro ADME; conditions: pH 7.4, as printed in text and footnote
compound,measurement,setting,value
"Cc1ncsc1-c1ccc(CNC(=O)[C@@H]2C[C@H](O)CN2C(=O)[C@@H](NC(=O)C2(F)CC2)C(C)(C)C)cc1 [cis-10, (2S,4S)-1-((S)-2-(1-Fluorocyclopropanecarboxamido)-3,3-dimethylbutanoyl)-4-hydroxy-N-(4-(4-methylthiazol-5-yl)benzyl)pyrrolidine-2-carboxamide]",toxicity in colony formation assay,[1],a degree of cytotoxicity
same,toxicity in cell-proliferation assay,[2],a degree of cytotoxicity
same,binding to VHL,"[3]; ITC and FP binding curves, Figure 2",no longer binds to VHL
"CC(C)NCC(O)COc1cccc2ccccc12 (centres unmarked) [propanolol, reference compound]",Compound associated with cells,[4],2679.0 µM
"COCCc1ccc(OCC(O)CNC(C)C)cc1 (centres unmarked) [Metoprolol, reference compound]",fraction unbound,[5],0.005
"Cc1ncsc1-c1ccc(CNC(=O)[C@@H]2C[C@@H](O)CN2C(=O)[C@@H](NC(=O)CO)C(C)(C)C)cc1 [Inhibitor 3, (2S,4R)-4-Hydroxy-1-((S)-2-(2-hydroxyacetamido)-3,3-dimethylbutanoyl)-N-(4-(4-methylthiazol-5-yl)benzyl)pyrrolidine-2-carboxamide]",GE (group efficiency),[6],−0.11
same,LE,[3],0.27 kcal × mol^-1 × NHA^-1
same,LLE,[3],6.28 kcal × mol^-1 × NHA^-1
CC(=O)N[C@H](C(=O)N1C[C@H](O)C[C@H]1C(=O)NCc1ccc(-c2scnc2C)cc1)C(C)(C)C [Inhibitor 1],Emax at 50 µM,[7],100 ± 7%
same,Compound associated with cells,[4],463.8 µM
same,fraction unbound,[5],0.0016
same,Microsomal stability (intrinsic clearance),[8],0.7 mL/min/g
"CC(=O)C1(C(=O)N[C@H](C(=O)N2C[C@H](O)C[C@H]2C(=O)NCc2ccc(-c3scnc3C)cc2)C(C)(C)C)CC1 [Inhibitor 16, (2S,4R)-1-((S)-2-(1-Acetylcyclopropanecarboxamido)-3,3-dimethylbutanoyl)-4-hydroxy-N-(4-(4-methylthiazol-5-yl)benzyl)pyrrolidine-2-carboxamide]",Dissociative t1/2,[9]; 10°C (first value of cell),10.04 ± 0.01 s
same,Dissociative t1/2,[9]; 20°C (second value of cell),4.101 ± 0.007 s
same,kon,[9]; 10°C,600000 M⁻¹ s⁻¹
same,kon,[9]; 20°C,820000 M⁻¹ s⁻¹
same,Compound associated with cells,[4],100.0 µM
same,Final free compound concentration in cells,[4],0.046 µM
same,fraction unbound,[5],0.0008
same,"Papp at 5 h, 10 μM",[10],1.5 ×10⁻⁶ cm/s
same,GE (group efficiency),[6],–0.01
same,LE,[3],0.25 kcal × mol^-1 × NHA^-1
same,LLE,[3],5.63 kcal × mol^-1 × NHA^-1
same,Microsomal stability (intrinsic clearance),[8],2.5 mL/min/g
"Cc1ncsc1-c1ccc(CNC(=O)[C@@H]2C[C@@H](O)CN2C(=O)[C@@H](N2CCCC2=O)C(C)(C)C)cc1 [Inhibitor 12, (2S,4R)-1-((S)-3,3-Dimethyl-2-(2-oxopyrrolidin-1-yl)butanoyl)-4-hydroxy-N-(4-(4-methylthiazol-5-yl)benzyl)pyrrolidine-2-carboxamide]",GE (group efficiency),[6],−0.48
Cc1ncsc1-c1ccc(CNC(=O)[C@@H]2C[C@@H](O)CN2C(=O)[C@@H](NC(=O)OC(C)(C)C)C(C)(C)C)cc1 [Inhibitor 2],GE (group efficiency),[6],−0.41
"Cc1ncsc1-c1ccc(CNC(=O)[C@@H]2C[C@@H](O)CN2C(=O)[C@@H](NC(=O)C2(C#N)CC2)C(C)(C)C)cc1 [Inhibitor 15, (2S,4R)-1-((S)-2-(1-Cyanocyclopropanecarboxamido)-3,3-dimethylbutanoyl)-4-hydroxy-N-(4-(4-methylthiazol-5-yl)benzyl)pyrrolidine-2-carboxamide]",toxicity in colony formation assay,[1],no toxicity
same,Compound associated with cells,[4],150.0 µM
same,fraction unbound,[5],0.0007
same,"Papp at 5 h, 10 μM",[10],1.94 ×10⁻⁶ cm/s
same,Microsomal stability (intrinsic clearance),[8],3.1 mL/min/g
"Cc1ncsc1-c1ccc(CNC(=O)[C@@H]2C[C@@H](O)CN2C(=O)[C@@H](NC(=O)C2(F)CC2)C(C)O)cc1 (stereo in doubt) [Inhibitor 14, (2S,4R)-1-((2S,3S)-2-(1-Fluorocyclopropanecarboxamido)-3-hydroxybutanoyl)-4-hydroxy-N-(4-(4-methylthiazol-5-yl)benzyl)pyrrolidine-2-carboxamide]",GE (group efficiency),[6],–0.19
"Cc1ncsc1-c1ccc(CNC(=O)[C@@H]2C[C@@H](O)CN2C(=O)[C@@H](NC(=O)C(C)(C)F)C(C)(C)C)cc1 [Inhibitor 9, (2S,4R)-1-((S)-2-(2-Fluoro-2-methylpropanamido)-3,3-dimethylbutanoyl)-4-hydroxy-N-(4-(4-methylthiazol-5-yl)benzyl)pyrrolidine-2-carboxamide]",GE (group efficiency),[6],−0.24
"Cc1ncsc1-c1ccc(CNC(=O)[C@@H]2C[C@@H](O)CN2C(=O)[C@@H](NC(=O)C(Cl)(Cl)Cl)C(C)(C)C)cc1 [Inhibitor 8, (2S,4R)-1-((S)-3,3-Dimethyl-2-(2,2,2-trichloroacetamido)butanoyl)-4-hydroxy-N-(4-(4-methylthiazol-5-yl)benzyl)pyrrolidine-2-carboxamide]",GE (group efficiency),[6],−0.04
"Cc1ncsc1-c1ccc(CNC(=O)[C@@H]2C[C@@H](O)CN2C(=O)[C@@H](NC(=O)C2CC2)C(C)(C)C)cc1 [Inhibitor 6, (2S,4R)-1-((S)-2-(Cyclopropanecarboxamido)-3,3-dimethylbutanoyl)-4-hydroxy-N-(4-(4-methylthiazol-5-yl)benzyl)pyrrolidine-2-carboxamide]",GE (group efficiency),[6],−0.02
same,LE,[3],0.26 kcal × mol^-1 × NHA^-1
same,LLE,[3],5.68 kcal × mol^-1 × NHA^-1
"Cc1ncsc1-c1ccc(CNC(=O)[C@@H]2C[C@@H](O)CN2C(=O)[C@@H](NC(=O)C2CCC2)C(C)(C)C)cc1 [Inhibitor 18, (2S,4R)-1-((S)-2-(Cyclobutanecarboxamido)-3,3-dimethylbutanoyl)-4-hydroxy-N-(4-(4-methylthiazol-5-yl)benzyl)pyrrolidine-2-carboxamide]",Dissociative t1/2,[9]; 10°C (first value of cell),4.95 ± 0.01 s
same,Dissociative t1/2,[9]; 20°C (second value of cell),2.71 ± 0.01 s
same,kon,[9]; 10°C,517000 M⁻¹ s⁻¹
same,kon,[9]; 20°C,1.1e+06 M⁻¹ s⁻¹
same,Compound associated with cells,[4],204.0 µM
same,Final free compound concentration in cells,[4],0.093 µM
same,fraction unbound,[5],0.0008
same,GE (group efficiency),[6],–0.07
same,LE,[3],0.25 kcal × mol^-1 × NHA^-1
same,LLE,[3],5.38 kcal × mol^-1 × NHA^-1
same,Microsomal stability (intrinsic clearance),[8],3.0 mL/min/g
"Cc1ncsc1-c1ccc(CNC(=O)[C@@H]2C[C@@H](O)CN2C(=O)[C@@H](NC(=O)C2(F)CC2)C(C)(C)C)cc1 [Inhibitor 10, (2S,4R)-1-((S)-2-(1-Fluorocyclopropanecarboxamido)-3,3-dimethylbutanoyl)-4-hydroxy-N-(4-(4-methylthiazol-5-yl)benzyl)pyrrolidine-2-carboxamide]",toxicity in colony formation assay,[1],a degree of cytotoxicity; also recorded: toxicity
same,toxicity in cell-proliferation assay,[2],notably decreased cell proliferation; also recorded: toxicity
same,Dissociative t1/2,[9]; 10°C (first value of cell),11.94 ± 0.08 s
same,Dissociative t1/2,[9]; 20°C (second value of cell),7.073 ± 0.007 s
same,Compound associated with cells,[4],383.6 µM
same,Final free compound concentration in cells,[4],0.071 µM
same,fraction unbound,[5],0.0002
same,"Papp at 5 h, 10 μM",[10],2.71 ×10⁻⁶ cm/s
same,Microsomal stability (intrinsic clearance),[8],2.9 mL/min/g
"Cc1ncsc1-c1ccc(CNC(=O)[C@@H]2C[C@@H](O)CN2C(=O)[C@@H](NC(=O)C(F)(F)F)C(C)(C)C)cc1 [Inhibitor 7, (2S,4R)-1-((S)-3,3-Dimethyl-2-(2,2,2-trifluoroacetamido)butanoyl)-4-hydroxy-N-(4-(4-methylthiazol-5-yl)benzyl)pyrrolidine-2-carboxamide]",GE (group efficiency),[6],−0.08
"CC(=O)NC1(C(=O)N[C@H](C(=O)N2C[C@H](O)C[C@H]2C(=O)NCc2ccc(-c3scnc3C)cc2)C(C)(C)C)CC1 [Inhibitor 17, (2S,4R)-1-((S)-2-(1-Acetamidocyclopropanecarboxamido)-3,3-dimethylbutanoyl)-4-hydroxy-N-(4-(4-methylthiazol-5-yl)benzyl)pyrrolidine-2-carboxamide]",GE (group efficiency),[6],–0.05
same,LE,[3],0.24 kcal × mol^-1 × NHA^-1
same,LLE,[3],6.28 kcal × mol^-1 × NHA^-1
"Cc1ncsc1-c1ccc(CNC(=O)[C@@H]2C[C@@H](O)CN2C(=O)[C@@H](NC(=O)CC(C)(C)C)C(C)(C)C)cc1 [Inhibitor 5, (2S,4R)-1-((S)-2-(3,3-Dimethylbutanamido)-3,3-dimethylbutanoyl)-4-hydroxy-N-(4-(4-methylthiazol-5-yl)benzyl)pyrrolidine-2-carboxamide]",GE (group efficiency),[6],−0.12
